Where no end group is shown, it is not given here.
Tests used:
[1] = test system: HSP47 (GAL4-BD-fusion); test: Yeast two-hybrid interaction with BD-fusion HSP47 (indicator of triple-helical conformation); type: cell-based, mouse
Excerpt: We expressed (Pro-Gly-Pro)-repeating peptides with a repeat number of 10, 13, or 23, as GAL4-AD-fusion proteins in yeast cells. The lengths of (Pro-Gly-Pro)10, (Pro-Gly-Pro)13, and (Pro-Gly-Pro)23 correspond to those of the N-terminal host, the guest plus the N-terminal host, and the guest plus the N- and C-hosts in the above peptide design (Fig. 1B), respectively. The peptides with fewer (Pro-Gly-Pro)-repeats have lower thermal stability of the triple helices ([19]). We set three different culture temperatures, 16, 30, and 37 °C, with the expectation of identifying the binding of BD-fusion HSP47 to these three peptides with GAL4-AD by the yeast two-hybrid system (Fig. 3). The mated yeast cells were selected by His and Ade auxotrophy in the presence of aureobasidin and X-α-Gal. When HSP47 interacts with the peptides, GAL4-BD and GAL4-AD are brought into proximity to activate the transcription of reporter genes (AUR1-C, ADE2, HIS3, and MEL1). The reporter gene expression allows yeast cells to survive on the plates and turn blue by degrading X-α-Gal. The interaction between HSP47 (bait) and peptides (prey) was detected by the growth of blue colonies on the selection plates. […] HSP47 bound only to (Pro-Gly-Pro)23 in yeast cells at 37 °C. At 30 °C, HSP47 bound to (Pro-Gly-Pro)13 as well as (Pro-Gly-Pro)23, but not to (Pro-Gly-Pro)10. At 16 °C, HSP47 bound to all three of the peptides.
A gene fragment encoding full-length mature mouse PEDF and HSP47 with EcoRI and SalI sites was obtained by PCR amplification, as described in the literature ([15], [45]). The DNA fragments and a pGBKT7 vector were ligated after digestion with EcoRI and SalI and transformed into E. coli HST08 competent cells (TaKaRa, Shiga, Japan). To prepare plasmids encoding PEDF R148A and D255N mutants, inverse PCR was performed with the above GAL4-BD-fused PEDF in a pGBKT7 vector as a template by Primestar MAX (TaKaRa). The PCR product was ligated with Gibson assembly reagents (New England Biolabs, Hertfordshire, UK), followed by transformation into HST08 competent cells. […]
(§1) Y2H interaction was detected by incubation of the generated diploids on minimal-medium quadruple-dropout (QDO; SD/-Leu-Trp-His-Ade) plates with 40 μg/ml X-α-Gal (FUJIFILM Wako Pure Chemical, Osaka, Japan) and 200 ng/ml aureobasidin A (TaKaRa) (QDOGA) plates and incubated for 3–5 days. Positivity for interaction was recorded upon the generation of yeast colonies that appeared blue.

[2] = test system: full-length mouse PEDF (GAL4-BD-fusion); test: Yeast two-hybrid interaction of AD-fusion peptides with BD-fusion WT-PEDF; type: cell-based; settings: yeast diploids cultured at 25 °C for 5 days
Excerpt: To determine whether the peptides with the obtained sequences bind to PEDF in the same manner as the native PEDF-binding sequence, α1(I)930–938, we examined independent two-hybrid interactions of the three peptides and their mutants in which Arg at Yaa4 was substituted with Ala. […] We also examined the binding of the peptides to collagen-binding-null or heparin-binding-null PEDF mutants that we already reported ([33]). […] Meanwhile, the interaction was not observed for the peptide with the 1-2 sequence, probably because Cys at Xaa9 led to weaker interaction with PEDF than Leu ([15]). […] By contrast, the interactions were maintained using heparin-binding-null PEDF mutant (PEDF R148A) as a bait protein.
The bait and prey plasmids were transformed into S. cerevisiae Y2H gold (MATa, trp1-901, leu2-3, 112, ura3-52, his3-200, gal4Δ, gal80Δ, LYS2::GAL1UAS-Gal1TATA-His3, GAL2UAS-Gal2TATA-Ade2, URA3::MEL1UAS-Mel1TATA, AUR1-C MEL1; TaKaRa) and Y187 strains (MATα, ura3-52, his3-200, ade2-101, trp1-901, leu2-3, 112, gal4Δ, gal80Δ, met-, URA3::GAL1UAS-Gal1TATA-LacZ, MEL1; TaKaRa), in accordance with the manufacturer’s protocol. They were incubated on SD/-Trp and SD/-Leu plates, respectively, at 30 °C for 4–5 days for the selection of transformed clones.
Diploids were prepared by mixing them on yeast peptone dextrose adenine (YPDA) plates. After incubation at 30 °C overnight, they were spread on minimal-medium double-dropout (DDO; SD/-Leu-Trp) plates and incubated at 30 °C for 2–3 days for the selection of diploids.
as §1

## (Pro-Gly-Pro)10 [GAL4-AD-fusion (Pro-Gly-Pro)10]
[1]; cultured at 30 °C for 3 days
  Two-hybrid interaction with HSP47: not

## (Pro-Gly-Pro)10-Lys-Gly-His-Arg-Gly-Phe-Ser-Gly-Leu-(Pro-Gly-Pro)10 [α1(I)930–938]
[2]
  Two-hybrid interaction with BD-fusion WT-PEDF (blue colonies on QDOGA plates): observed

## (Pro-Gly-Pro)13 [GAL4-AD-fusion (Pro-Gly-Pro)13]
[1]; cultured at 30 °C for 3 days
  Two-hybrid interaction with HSP47: bound

## (Pro-Gly-Pro)23 [GAL4-AD-fusion (Pro-Gly-Pro)23]
[1]; cultured at 30 °C for 3 days
  Two-hybrid interaction with HSP47: bound
[1]; cultured at 37 °C for 3 days
  Two-hybrid interaction with HSP47: bound

## KGCRGLHGL [1-1, GAL4-AD-fusion peptide clone from the random library, flanked by (Pro-Gly-Pro)10 hosts]
[2]
  Two-hybrid interaction with BD-fusion WT-PEDF (blue colonies on QDOGA plates): observed

## RGHRGFLGL [1-3, GAL4-AD-fusion peptide clone from the random library]
[2]
  Two-hybrid interaction with BD-fusion WT-PEDF (blue colonies on QDOGA plates): observed

## RGVRGFEGC [1-2, GAL4-AD-fusion peptide clone from the random library]
[2]
  Two-hybrid interaction with BD-fusion WT-PEDF (blue colonies on QDOGA plates): not observed
